Measurements as given in patent US11566057B2, “Long-acting co-agonists of the glucagon and GLP-1 receptors” (Merck Sharp & Dohme Corp., priority 2017, dated 2023).
Numbered stars: 1 amine (or outer) side, 2 acyl side, 3 side chain; on linkers, the order of the positions; unused ones are H or OH. Square brackets hold non-standard residues; d marks the D form. Side chains are listed from the residue outwards. Peptide text beside a SMILES is read from it. * marks the point of attachment. C20 diacid = O=C(O)CCCCCCCCCCCCCCCCCCC(=O)*; Phe(4-CH2NH2) = NCc1ccc(C[C@H](N)C(=O)O)cc1; C18 diacid = O=C(O)CCCCCCCCCCCCCCCCC(=O)*; γGlu = O=C(O)[C@H](CCC(=O)[*:2])N[*:1]; Met(O2) = CS(=O)(=O)CC[C@H](N)C(=O)O; αMeD = C[C@](N)(CC(=O)O)C(=O)O; AEEA = NCCOCCOCC(=O)O; Aib = CC(C)(N)C(=O)O

biological target: T1, human GCGR (Homo sapiens, UniProt P47871); experiment: cAMP activity assay at the Glucagon receptor (GCGR); format: cell-based; settings: cells expressing human GCGR, cAMP production; buffer with or without 20% human serum (not stated which); read-out: GCGR EC50 human
T1 construct: expressed in transfected cells; growth medium holds Blasticidin and Hygromycin
Description: Activity of the peptides at the Glucagon receptor (GCGR) and GLP-1 receptor (GLP1R) was measured in a cAMP activity assay.
GCG/GLP-1 receptor co-agonist peptides were dissolved in 100% DMSO (dimethyl sulfoxide) and serially diluted to generate 10 point titrations. The peptide solutions were then transferred into 384-well assay plates (150 nL/well). Assay ready frozen cells expressing human GLP1R or human GCGR were suspended in growth media consisting of DMEM medium (GIBCO®), 10% FBS (GIBCO®), 1×NEAA(GIBCO®), 1×P/S (GIBCO®), 10 ug/mL Blasticidin (GIBCO®) and 200 μg/mL Hygromycin (GIBCO®). […] The cell suspensions (15 μL) were then added to the assay plates containing the peptide solutions (30,000 cells/well for human GCGR; 10,000 cells/well for human GLP1R). The cells were incubated for 1 hour at room temperature in the dark. Production of cAMP was determined using HitHunter™ cAMPXS kits (DiscoverX) following manufacturer protocol. The plates were incubated for overnight at room temperature in the dark. Luminescence was measured using an EnVision Multilabel plate reader (Perkin Elmer). Native GLP-1 and Glucagon (Bachem) are used as control peptides. EC50 values were calculated using uses a 4 parameter logistic fit based on the Levenberg-Marquardt algorithm.

T1 sequence (P47871 26-477): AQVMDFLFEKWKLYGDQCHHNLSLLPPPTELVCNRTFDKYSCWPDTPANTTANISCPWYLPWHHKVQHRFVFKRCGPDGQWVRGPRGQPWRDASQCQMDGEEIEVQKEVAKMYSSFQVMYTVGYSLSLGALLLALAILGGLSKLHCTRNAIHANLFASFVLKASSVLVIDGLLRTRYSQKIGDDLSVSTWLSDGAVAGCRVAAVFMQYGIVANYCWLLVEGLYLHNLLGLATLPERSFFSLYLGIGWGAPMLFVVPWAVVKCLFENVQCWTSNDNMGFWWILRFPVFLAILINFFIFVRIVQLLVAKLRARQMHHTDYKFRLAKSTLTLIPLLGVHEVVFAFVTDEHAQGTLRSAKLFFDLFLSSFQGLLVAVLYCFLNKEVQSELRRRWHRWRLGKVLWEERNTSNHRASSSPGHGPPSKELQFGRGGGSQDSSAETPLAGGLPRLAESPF

EC50 [nM] | Structure (SMILES)
> 4.9 | CC(C)C[C@H](NC(=O)[C@H](Cc1ccc(O)cc1)NC(=O)[C@H](CCC(=O)O)NC(=O)[C@H](CO)NC(=O)[C@H](Cc1ccc(O)cc1)NC(=O)[C@H](CC(=O)O)NC(=O)[C@H](CO)NC(=O)[C@@H](NC(=O)[C@H](Cc1ccccc1)NC(=O)[C@@H](NC(=O)CNC(=O)[C@H](CCC(N)=O)NC(=O)C(C)(C)NC(=O)[C@@H](N)Cc1c[nH]cn1)[C@@H](C)O)[C@@H](C)O)C(=O)N[C@@H](CC(=O)O)C(=O)N[C@@H](CCCCN)C(=O)N[C@@H](CCCNC(=N)N)C(=O)N[C@@H](C)C(=O)N[C@@H](C)C(=O)N[C@@H](CCC(N)=O)C(=O)N[C@@H](CC(=O)O)C(=O)N[C@@H](Cc1ccccc1)C(=O)N[C@H](C(=O)N[C@@H](CCCCNC(=O)COCCOCCNC(=O)COCCOCCNC(=O)CC[C@H](NC(=O)CCCCCCCCCCCCCCCCC(=O)O)C(=O)O)C(=O)N[C@@H](Cc1c[nH]c2ccccc12)C(=O)N[C@@H](CC(C)C)C(=O)N[C@@H](CCS(C)(=O)=O)C(=O)N[C@@H](CC(=O)O)C(=O)N[C@H](C(N)=O)[C@@H](C)O)C(C)C [TP700] (H-H[Aib]QGTFTSDYSEYLDKRAAQDFVK([AEEA-AEEA-γGlu-C18 diacid])WL[Met(O2)]DT-NH2)

same assay, conditions: ratio of GCGR EC50 to GLP1R EC50

hGCGR/hGLP1R (hTone) | Structure (SMILES)
7.9 | CC(C)C[C@H](NC(=O)[C@H](Cc1c[nH]c2ccccc12)NC(=O)[C@H](CCC(N)=O)NC(=O)[C@@H](NC(=O)[C@H](Cc1ccccc1)NC(=O)[C@H](CC(=O)O)NC(=O)[C@H](CCC(N)=O)NC(=O)[C@H](C)NC(=O)[C@H](C)NC(=O)[C@H](CCCNC(=N)N)NC(=O)C(C)(C)NC(=O)[C@H](CC(=O)O)NC(=O)[C@H](CC(C)C)NC(=O)[C@H](Cc1ccc(O)cc1)NC(=O)[C@H](CCCCN)NC(=O)[C@H](CO)NC(=O)[C@H](Cc1ccc(O)cc1)NC(=O)[C@H](CC(=O)O)NC(=O)[C@H](CO)NC(=O)[C@@H](NC(=O)[C@H](Cc1ccccc1)NC(=O)[C@@H](NC(=O)CNC(=O)[C@H](CCC(N)=O)NC(=O)[C@@H](CO)NC(=O)[C@@H](N)Cc1c[nH]cn1)[C@@H](C)O)[C@@H](C)O)C(C)C)C(=O)N[C@@H](CC(C)C)C(=O)N[C@@H](CCCCNC(=O)COCCOCCNC(=O)COCCOCCNC(=O)CC[C@H](NC(=O)CCCCCCCCCCCCCCCCC(=O)O)C(=O)O)C(=O)N[C@H](C(=O)N[C@@H](CCCCN)C(=O)N[C@@H](CCC(N)=O)C(=O)O)[C@@H](C)O [TP685] (H-H[dS]QGTFTSDYSKYLD[Aib]RAAQDFVQWLLK([AEEA-AEEA-γGlu-C18 diacid])TKQ-OH; N-terminus and C-terminus assumed)
0.9 | CC(C)C[C@H](NC(=O)[C@H](Cc1ccc(O)cc1)NC(=O)[C@H](CCCCN)NC(=O)[C@H](CO)NC(=O)[C@H](Cc1ccc(O)cc1)NC(=O)[C@H](CC(=O)O)NC(=O)[C@H](CO)NC(=O)[C@@H](NC(=O)[C@H](Cc1ccccc1)NC(=O)[C@@H](NC(=O)CNC(=O)[C@H](CCC(N)=O)NC(=O)C(C)(C)NC(=O)[C@@H](N)Cc1c[nH]cn1)[C@@H](C)O)[C@@H](C)O)C(=O)N[C@@H](CC(=O)O)C(=O)N[C@@H](C)C(=O)N[C@@H](CCCNC(=N)N)C(=O)N[C@@H](C)C(=O)N[C@@H](C)C(=O)N[C@@H](CCC(N)=O)C(=O)N[C@@H](Cc1ccc(CNC(=O)COCCOCCNC(=O)COCCOCCNC(=O)CC[C@H](NC(=O)CCCCCCCCCCCCCCCCC(=O)O)C(=O)O)cc1)C(=O)N[C@@H](Cc1ccccc1)C(=O)N[C@H](C(=O)N[C@@H](CCC(N)=O)C(=O)N[C@@H](Cc1c[nH]c2ccccc12)C(=O)N[C@@H](CC(C)C)C(=O)N[C@@H](CC(C)C)C(=O)N[C@@](C)(CC(=O)O)C(=O)N[C@H](C(N)=O)[C@@H](C)O)C(C)C [TP609] (H-H[Aib]QGTFTSDYSKYLDARAAQ[Phe(4-CH2NH2)]([AEEA-AEEA-γGlu-C18 diacid])FVQWLL[αMeD]T-NH2; N-terminus assumed)
1.6 | CC(C)C[C@H](NC(=O)[C@H](Cc1ccc(O)cc1)NC(=O)[C@H](CCCCN)NC(=O)[C@H](CO)NC(=O)[C@H](Cc1ccc(O)cc1)NC(=O)[C@H](CC(=O)O)NC(=O)[C@H](CO)NC(=O)[C@@H](NC(=O)[C@H](Cc1ccccc1)NC(=O)[C@@H](NC(=O)CNC(=O)[C@H](CCC(N)=O)NC(=O)C(C)(C)NC(=O)[C@@H](N)Cc1c[nH]cn1)[C@@H](C)O)[C@@H](C)O)C(=O)N[C@@H](CC(=O)O)C(=O)N[C@@H](C)C(=O)N[C@@H](CCCNC(=N)N)C(=O)N[C@@H](C)C(=O)N[C@@H](C)C(=O)N[C@@H](CCC(N)=O)C(=O)N[C@@H](CC(=O)O)C(=O)N[C@@H](Cc1ccccc1)C(=O)N[C@H](C(=O)N[C@@H](Cc1ccc(CNC(=O)CC[C@H](NC(=O)CCCCCCCCCCCCCCCCC(=O)O)C(=O)O)cc1)C(=O)N[C@@H](Cc1c[nH]c2ccccc12)C(=O)N[C@@H](CC(C)C)C(=O)N[C@@H](CC(C)C)C(=O)N[C@@H](CC(=O)O)C(=O)N[C@H](C(N)=O)[C@@H](C)O)C(C)C [TP639] (H-H[Aib]QGTFTSDYSKYLDARAAQDFV[Phe(4-CH2NH2)]([γGlu-C18 diacid])WLLDT-NH2; N-terminus assumed)
2.3 | CC(C)C[C@H](NC(=O)[C@H](Cc1ccc(O)cc1)NC(=O)[C@H](CCCCN)NC(=O)[C@H](CO)NC(=O)[C@H](Cc1ccc(O)cc1)NC(=O)[C@H](CC(=O)O)NC(=O)[C@H](CO)NC(=O)[C@@H](NC(=O)[C@H](Cc1ccccc1)NC(=O)[C@@H](NC(=O)CNC(=O)[C@H](CCC(N)=O)NC(=O)C(C)(C)NC(=O)[C@@H](N)Cc1c[nH]cn1)[C@@H](C)O)[C@@H](C)O)C(=O)N[C@@H](CC(=O)O)C(=O)N[C@@H](C)C(=O)N[C@@H](CCCCN)C(=O)N[C@@H](C)C(=O)N[C@@H](C)C(=O)N[C@@H](CCCCNC(=O)COCCOCCNC(=O)COCCOCCNC(=O)CC[C@H](NC(=O)CCCCCCCCCCCCCCCCC(=O)O)C(=O)O)C(=O)N[C@@H](CC(=O)O)C(=O)N[C@@H](Cc1ccccc1)C(=O)N[C@H](C(=O)N[C@@H](CCC(N)=O)C(=O)N[C@@H](Cc1c[nH]c2ccccc12)C(=O)N[C@@H](CC(C)C)C(=O)N[C@@H](CCS(C)(=O)=O)C(=O)N[C@@H](CC(=O)O)C(=O)N[C@H](C(N)=O)[C@@H](C)O)C(C)C [TP598] (H-H[Aib]QGTFTSDYSKYLDAKAAK([AEEA-AEEA-γGlu-C18 diacid])DFVQWL[Met(O2)]DT-NH2; N-terminus assumed)
2.4 | CC(C)C[C@H](NC(=O)[C@H](Cc1ccc(O)cc1)NC(=O)[C@H](CCCCN)NC(=O)[C@H](CO)NC(=O)[C@H](Cc1ccc(O)cc1)NC(=O)[C@H](CC(=O)O)NC(=O)[C@H](CO)NC(=O)[C@@H](NC(=O)[C@H](Cc1ccccc1)NC(=O)[C@@H](NC(=O)CNC(=O)[C@H](CCC(N)=O)NC(=O)C(C)(C)NC(=O)[C@@H](N)Cc1c[nH]cn1)[C@@H](C)O)[C@@H](C)O)C(=O)N[C@@H](CC(=O)O)C(=O)N[C@@H](C)C(=O)N[C@@H](CCCNC(=N)N)C(=O)N[C@@H](C)C(=O)N[C@@H](C)C(=O)N[C@@H](CCCCNC(=O)COCCOCCNC(=O)COCCOCCNC(=O)CC[C@H](NC(=O)CCCCCCCCCCCCCCCCCCC(=O)O)C(=O)O)C(=O)N[C@@H](CC(=O)O)C(=O)N[C@@H](Cc1ccccc1)C(=O)N[C@H](C(=O)N[C@@H](CCC(N)=O)C(=O)N[C@@H](Cc1c[nH]c2ccccc12)C(=O)N[C@@H](CC(C)C)C(=O)N[C@@H](CCS(C)(=O)=O)C(=O)N[C@@](C)(CC(=O)O)C(=O)N[C@H](C(N)=O)[C@@H](C)O)C(C)C [TP565] (H-H[Aib]QGTFTSDYSKYLDARAAK([AEEA-AEEA-γGlu-C20 diacid])DFVQWL[Met(O2)][αMeD]T-NH2; N-terminus assumed)
